Laboratory results taken from publication PMC10830420, “Structures, functions and adaptations of the human LINE-1 ORF2 protein” (Nature, 2023).

Assays:
[1] = system: L1 retrotransposition reporter in HeLa cells; assay: LINE-1 dual luciferase retrotransposition assay in HeLa cells; format: cell-based, human; conditions: HeLa cells, stable dual luciferase L1 reporter, normalized to cell viability, n = 3 wells
[2] = target: T1, ORF2p core (Homo sapiens, UniProt O00370); assay: Gel-based L1 RT assay, ORF2p core, inhibition by NRTI triphosphates; format: biochemical; conditions: 100 nM dNTP mixture
T1 construct: His6-MBP-3C-ORF2p (238-1061, ORFeus-Hs) in pET41; His6-MBP (3C protease site) (N, cleaved yes); made in house; host or cells: E. coli
Experimental: (§1) ORF2p core was preincubated with a template:primer containing a single site for the incorporation of a given nucleotide analogue. The primer/template sequence shown in the panel a illustrates the case of single incorporation of 3TC, with a single G for incorporation; the incoming template sequence for entecavir and carbovir has a single C, and for d4T a single A, each at position labeled “N”. Reactions were incubated for one minute at 37 °C with a 100 nM dNTP mixture and increasing concentrations of listed inhibitors. IC50 index, fold = IC50 (drug, µM) ÷ [dNTP] […] Fluorescein-labeled dNTPs (here, uracil-TP) are incorporated by ORF2p into a biotinylated primer, here shown against a poly(A) template. Detection is then achieved using FRET with a terbium cryptate labeled streptavidin, and the time-resolved technique and time-delayed emission from terbium cryptate reduces background from other fluorescent chemicals in the mix. In the presence of ORF2p RT inhibitors (RTIs), base incorporation is stopped and FRET signal is lost. […]
(§2) ORF2p reverse transcriptase activity assays […]
Gel-based RT activity assays consisted of pr e-incubating RTs with annealed DNA/RNA, DNA/DNA, or RNA/RNA 5’- end- radiolabeled or 5’-end-Cy5- o r FAM-labeled template:primer duplex or hybrid duplex and, where indicated, inhibitor in the presence of 0.1- 1 μ M dNTP or NTP mixture, 0.25 mM EDTA, 50 mM NaCl, and 25 mM Tris (pH 8) for 10 min at 37°C. Labeled nucleic acids were purchased from Dharmacon or IDT. Unless otherwise indicated, 15 μL reactions were initiated by the addition of 1.3 mM MgCl2, incubated for 10 min at 37 °C, and then stopped by the addition of 15 μL of formamide/EDTA (25 mM) mixture and incubated at 95 °C for 10 min. 3 μL reaction samples were subjected to denaturing 8 M urea 20% PAGE to resolve products followed by signal quantification (ImageQuant 5.2, GE Healthcare Bio- Sciences) through phosphorimaging (Amersham Typhoon 5, Cytivia). Scanned gel images are […]
minor products; original images are provided in an Extended Data file. […]

[3] = target: T2, A701M mutant full-length ORF2p (FMDD) (Homo sapiens, UniProt O00370, A701M); assay: Gel-based RT assay of full-length ORF2p A701M mutant (FMDD); format: biochemical
T2 construct: His8 (C); HERV-K protease + TEV protease + TEV site (self-processed; leaves one Gly) (N, cleaved yes); made in house; host or cells: SF9 insect cells (MultiBac)
Excerpt: (§3) Crystal structure of AZT triphosphate bound to HIV-1 RT (PDB 5I42) versus model of AZT triphosphate bound to L1 ORF2p. […] Left, HIV-1 RT in the NNRTI-unbound conformation (PDB 7LRI). Residues involved in NNRTI-resistance are highlighted; space occupied by HIV-1-bound nevirapine is shadowed (PDB 4PUO). Right, equivalent region in L1 ORF2p. The long α-helix corresponds to residues 572–588 in ORF2p. […] Data in a, b and e are representative of two independent experiments and shown as mean ± s.d. […]
(§4) server155 and manually checked with cutoff of 2.5-3.3 Å for polar interactions and 3.7 Å for van der Waals […]
(§5) ORF2p reverse transcriptase activity assays
(§6) Microwell assays were performed using the reverse transcriptase assay, colorimetric (Roche) according to the manufacturer’s instructions, with the supplied poly(A) template and oligo(dT) 15 primer. ORF2p fractions were diluted for assay in lysis/binding buffer (50 mM Tris, 80 mM potassium chloride, 2.5 mM DTT, 0.75 mM EDTA, and 0.5% Triton X- 100; pH 7.8) and incorporation of digoxigenin- and biotin- labeled dUTP into DNA was measured by absorbance at 405 nm as compared to a 490 nm reference. […] 3 μL reaction samples were subjected to denaturing 8 M urea 20% PAGE to resolve products followed by signal quantification (ImageQuant 5.2, GE Healthcare Bio- Sciences) through phosphorimaging (Amersham Typhoon 5, Cytivia). […]

[4] = target: T3, Full-length ORF2p WT (FADD) (Homo sapiens, UniProt O00370); assay: Gel-based RT assay of full-length ORF2p WT (FADD); format: biochemical; conditions: single-nucleotide-resolution RT assays
T3 construct: gel-based RT assay of full-length ORF2p WT (FADD) or HIV-like (FMDD); His8 (C); HERV-K protease + TEV protease + TEV site (self-processed; leaves one Gly) (N, cleaved yes); made in house; host or cells: SF9 insect cells (MultiBac)
Excerpt: as §3, §4, §5, §6

[5] = target: T1, ORF2p core; assay: Homogeneous time-resolved fluorescence (HTRF) ORF2p RT assay; format: biochemical; conditions: HTRF; NRTI NTPs
Experimental: as §1, §2
For HTRF RT assays157, 25 nM ORF2p core and 12. 5 nM t em plat e: primer was incubated at 25°C for 60 minutes
with 10 nM of fluorescein- 12- dUTP (Thermo), 1 µM each (dATP,dCTP,dGTP), and test compound in a 15 µL
reaction with buffer containing 50 mM Tris-HCl, 50 mM KCl, 10 mM MgCl2, 10 mM DTT, pH 8.1, and 1% final

Nc1ccn([C@@H]2CS[C@H](CO)O2)c(=O)n1 [3TC, lamivudine]
IC50 [1]: 900 nM | IC50 ([1]; Homo sapiens, HeLa): 1000 to 5000 nM | IC50 index, fold = IC50 (drug, µM) ÷ [dNTP] (natural counterpart, 0.1 µM) [2]: 56 fold | IC50 ([2]; NTP forms of NRTIs, one minute at 37 °C): 5000 to 7000 nM | fold more potent in inhibiting A701M mutant full-length ORF2p (FMDD) than wild type (FADD) [3]: approximately 15 fold | inhibition of full-length ORF2p compared with ORF2p core [4]: similarly inhibited | IC50 [5]: 200 to 750 nM
